In PubChem BioAssay AID504703 (Southern Research Specialized Biocontainment Screening …, 2011):
Several values for one entry are separate records, joined by “and”; a condition that tells them apart may be missing. Identical values can stand only once. Activity calls are given as the source filed them. The rule behind the calls is not given here.

Test system: M. tuberculosis H37Rv growth inhibition with meropenem
Experiment: M. tuberculosis growth inhibition, H37Rv, set 2, dose response (AID 504703);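 note: growth ran 7 days at 37 °C then overnight with Alamar Blue before reading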
[1] = M. tuberculosis H37Rv growth inhibition, measured here: IC50 without meropenem
[2] = M. tuberculosis H37Rv growth inhibition, measured here: IC90 without meropenem
[3] = measured here: IC90 with meropenem

SMILES	IC50 [1]	IC90 [2] [µM]	IC90 [3]	IC50
O=C(Cc1csc(-c2ccccc2F)n1)Nc1nc2ccccc2[nH]1	> 25 µM	> 25	–	–
CC(=O)Nc1ccc2nc(NC(=O)COc3ccccc3)sc2c1	> 25 µM	> 25	–	–
COc1ccccc1C(=O)N/C(N)=N/c1nc2ccccc2o1	> 25 µM	> 25	–	–
COc1ccc2c(c1)cc(C)n2-c1ccccc1	> 25 µM	> 25	> 25 µM	–
COc1cccc(-c2ccc(-c3noc(-c4ccccc4F)n3)c(OC)n2)c1	> 25 µM	> 25	> 25 µM	> 25 µM (inactive)
O=C(Nc1nc2ccccc2[nH]1)c1cc2cc(Br)ccc2o1	> 25 µM	> 25	–	–
COc1ccc2oc(C(=O)Nc3nc4ccccc4[nH]3)c(C)c2c1	–	> 25	> 25 µM	10.5 µM (inactive)
O=C(Nc1nc2ccccc2[nH]1)c1ccc(Cl)c(Cl)c1	1.9 µM	> 25	> 25 µM	0.81 µM (inactive)
Cc1ccc2oc(/N=C(\N)NC(=O)c3ccccc3)nc2c1	> 25 µM	> 25	–	–
CCOC(=O)COc1nc(-c2ccc(Cl)cc2)cc(-c2ccco2)c1C#N	> 25 µM	> 25	> 25 µM	–
Cc1c(OCc2ccc(C(=O)O)cc2)ccc2c(-c3ccccc3)cc(=O)oc12	> 25 µM	> 25	> 25 µM	–
c1ccc(Nc2ncnc3c2oc2ccccc23)cc1	> 18.8 µM and 11.5 µM	> 18.8	> 25 µM	> 18.8 µM (inactive) and 5.29 µM (inactive)
CCOc1ccc2c(c1)c(CC)c(C)n2-c1ccccc1	> 25 µM	> 25	> 25 µM	–
CCC(CC)c1nnc(NC(=O)c2ccc(N3CCCCC3)c([N+](=O)[O-])c2)s1	> 25 µM	> 25	–	–
COc1ccc2[nH]c(C)cc2c1	> 25 µM	> 25	–	–
N/C(=N\c1nc2ccccc2o1)NC(=O)c1ccccc1F	> 25 µM	> 25	–	–
CCOc1ccc2nc(NC(=O)c3cnccn3)sc2c1	> 25 µM	> 25	–	–
O=C(COc1ccccc1Cl)Nc1nc2ccccc2s1	> 25 µM	> 25	–	–
CC(=O)c1c(C)n(-c2ccccc2)c2ccc(O)cc12	> 25 µM	> 25	> 25 µM	20.1 µM (inactive)
O=C(COC(=O)C1=COCCO1)Nc1ccc2c(c1)OCO2	> 25 µM	> 25	> 25 µM	–
CCOc1ccc2c(c1)c(C(C)=O)c(C)n2-c1ccccc1	> 25 µM	> 25	> 18.8 µM and 2.79 µM	–
CCOc1ccc2nc(NC(=O)C3(c4ccccc4)CCCC3)sc2c1	2.08 µM	8.95	4.16 µM	1.2 µM (inactive)
CCOc1ccc2c(c1)c(C(C)=O)c(C)n2-c1ccccc1C	23.2 µM	> 25	12.1 µM	–
Cc1cccnc1NC(=S)NC(=O)c1cncc(Br)c1	4.21 µM	> 25	> 25 µM	2.71 µM (inactive)
CCOc1ccc2c(c1)c(C(C)=O)c(C)n2-c1cccc(Cl)c1	> 25 µM	> 25	> 25 µM	10.5 µM (inactive)
COc1ccc2nc(NC(=O)COc3ccccc3C(C)C)sc2c1	> 25 µM	> 25	–	–
Cc1ccc(OCC(=O)Nc2cccc3c(NC(=O)COc4ccc(C)cc4C)cccc23)c(C)c1	> 25 µM	> 25	–	–
COC(=O)c1c(C)n(-c2ccccc2)c2ccc(O)cc12	> 25 µM	> 25	> 18.8 µM	8.43 µM (inactive) and > 12.5 µM (inactive)
Cc1ccc(OC(C)C(=O)Nc2ncccn2)c(C)c1 (stereo unspecified)	> 25 µM	> 25	–	–
CCOC(=O)c1cnc2cc(-c3ccc(C(C)(C)C)cc3)nn2c1N	1.15 µM and 4.11 µM	> 25	> 25 µM	1.99 µM (inactive)
